PMC11278161 (Marine Drugs, 2024)
*1 amine or outer side, *2 acyl side, *3 side chain or, on linkers, in order; H or OH if unused. Where a SMILES comes first, the peptide text is derived from it. Bridges are numbered along the chain shown (N, C = ends). X1 = CC[C@@]1(OC(=O)CCC(=O)NCCOCCOCCOCCn2cc(COc3cc(C[*:1])cc(C[*:2])c3)nn2)C(=O)OCc2c1cc1n(c2=O)Cc2cc3ccccc3nc2-1; X2 = CC[C@@]1(OC(=O)Cn2cc(COc3cc(C[*:1])cc(C[*:2])c3)nn2)C(=O)OCc2c1cc1n(c2=O)Cc2cc3ccccc3nc2-1

Tested on: A549 cells
Conditions: human

SMILES | IC50
CC[C@H](C)[C@@H]1NC(=O)[C@H](CC(N)=O)NC(=O)[C@@H]2CCCN2C(=O)[C@H](CC(N)=O)NC(=O)[C@H](CC(N)=O)NC(=O)[C@H](C(C)C)NC(=O)[C@H](CCCNC(=N)N)NC(=O)[C@@H]2CSSC[C@H](NC(=O)CNC(=O)[C@@H](N)CO)C(=O)N[C@@H](CSCc3cc(cc(OCc4cn(CC(=O)O[C@]5(CC)C(=O)OCc6c5cc5n(c6=O)Cc6cc7ccccc7nc6-5)nn4)c3)CSC[C@@H](C(N)=O)NC1=O)C(=O)N[C@@H](CO)C(=O)N[C@@H](CC(N)=O)C(=O)N1CCC[C@H]1C(=O)N[C@@H](C)C(=O)N2 [LsIA[2,4]-8] (H-SGCCSNPACRVNNPNIC-NH2; disulfide 3-9; linker 4-17 via X2) | 216 nM
CC[C@H](C)[C@@H]1NC(=O)[C@H](CC(N)=O)NC(=O)[C@@H]2CCCN2C(=O)[C@H](CC(N)=O)NC(=O)[C@H](CC(N)=O)NC(=O)[C@H](C(C)C)NC(=O)[C@H](CCCNC(=N)N)NC(=O)[C@@H]2CSSC[C@H](NC(=O)CNC(=O)[C@@H](N)CO)C(=O)N[C@@H](CSCc3cc(cc(OCc4cn(CCOCCOCCOCCNC(=O)CCC(=O)O[C@]5(CC)C(=O)OCc6c5cc5n(c6=O)Cc6cc7ccccc7nc6-5)nn4)c3)CSC[C@@H](C(N)=O)NC1=O)C(=O)N[C@@H](CO)C(=O)N[C@@H](CC(N)=O)C(=O)N1CCC[C@H]1C(=O)N[C@@H](C)C(=O)N2 [LsIA[2,4]-9] (H-SGCCSNPACRVNNPNIC-NH2; disulfide 3-9; linker 4-17 via X1) | 338 nM
